Data on 3 compounds can be found in PubChem BioAssay AID1259407 (Chemical Carcinogenesis Research Information System (CCRIS), 2018).

The subject of the data set is CCRIS mutagenicity, Ames/micronucleus/aberration tests. Kind of data set: CCRIS mutagenicity studies.

The source made the active and inactive calls. How the calls were made is not given here.

Consider `O=C(Cl)c1ccc([N+](=O)[O-])cc1`, for which the mutagenic call was “inactive; negative. precipitation observed in culture medium at all doses tested” (End Point: In vitro chromosomal aberrations, Test System: Chinese hamster lung (CHL/IU) cells, Metabolic Activation: None); “inactive; negative. precipitation observed in culture medium at all doses tested” (End Point: In vitro chromosomal aberrations, Test System: Chinese hamster lung (CHL/IU) cells, Metabolic Activation: Rat, Liver, S9, Phenobarbital and 5,6-benzoflavone); “active; positive” (Test System: AMES SALMONELLA TYPHIMURIUM, Strain/Indicator: TA98, Metabolic Activation: HAMSTER, LIVER, S-9, AROCLOR 1254 (10%), Method: PREINCUBATION); “inactive; negative” (Test System: AMES SALMONELLA TYPHIMURIUM, Strain/Indicator: TA98, Metabolic Activation: HAMSTER, LIVER, S-9, AROCLOR 1254, Method: STANDARD PLATE); “inactive; negative” (Test System: AMES SALMONELLA TYPHIMURIUM, Strain/Indicator: TA98, Metabolic Activation: NONE, Method: STANDARD PLATE); “active; positive” (Test System: AMES SALMONELLA TYPHIMURIUM, Strain/Indicator: TA98, Metabolic Activation: RAT, LIVER, S-9, AROCLOR 1254 (10%), Method: PREINCUBATION). For the same compound, the mutagenic call runs as follows: (Test System: AMES SALMONELLA TYPHIMURIUM, Strain/Indicator: TA98, Metabolic Activation: RAT, LIVER, S-9, AROCLOR 1254, Method: STANDARD PLATE) “inactive; negative”; (Test System: AMES SALMONELLA TYPHIMURIUM, Strain/Indicator: TA98, Metabolic Activation: RAT, LIVER, S-9, KANECHLOR 500, Method: PREINCUBATION) “inactive; negative”; (Test System: AMES SALMONELLA TYPHIMURIUM, Strain/Indicator: TA100, Metabolic Activation: HAMSTER, LIVER, S-9, AROCLOR 1254 (10%), Method: PREINCUBATION) “active; positive”; (Test System: AMES SALMONELLA TYPHIMURIUM, Strain/Indicator: TA100, Metabolic Activation: HAMSTER, LIVER, S-9, AROCLOR 1254, Method: STANDARD PLATE) “inactive; negative”; (Test System: AMES SALMONELLA TYPHIMURIUM, Strain/Indicator: TA100, Metabolic Activation: NONE, Method: PREINCUBATION) “active; positive”; (Test System: AMES SALMONELLA TYPHIMURIUM, Strain/Indicator: TA100, Metabolic Activation: NONE, Method: STANDARD PLATE) “inactive; negative”. Further, the mutagenic call is “active; positive” (Test System: AMES SALMONELLA TYPHIMURIUM, Strain/Indicator: TA100, Metabolic Activation: RAT, LIVER, S-9, AROCLOR 1254 (10%), Method: PREINCUBATION); “inactive; negative” (Test System: AMES SALMONELLA TYPHIMURIUM, Strain/Indicator: TA100, Metabolic Activation: RAT, LIVER, S-9, AROCLOR 1254, Method: STANDARD PLATE); “active; positive” (Test System: AMES SALMONELLA TYPHIMURIUM, Strain/Indicator: TA100, Metabolic Activation: RAT, LIVER, S-9, KANECHLOR 500, Method: PREINCUBATION); “active; positive” (Test System: AMES SALMONELLA TYPHIMURIUM, Strain/Indicator: TA1535, Metabolic Activation: HAMSTER, LIVER, S-9, AROCLOR 1254 (10%), Method: PREINCUBATION); “inactive; negative” (Test System: AMES SALMONELLA TYPHIMURIUM, Strain/Indicator: TA1535, Metabolic Activation: HAMSTER, LIVER, S-9, AROCLOR 1254, Method: STANDARD PLATE); “active; positive” (Test System: AMES SALMONELLA TYPHIMURIUM, Strain/Indicator: TA1535, Metabolic Activation: NONE, Method: PREINCUBATION). The mutagenic call is, setting by setting: (Test System: AMES SALMONELLA TYPHIMURIUM, Strain/Indicator: TA1535, Metabolic Activation: NONE, Method: STANDARD PLATE) “inactive; negative”; (Test System: AMES SALMONELLA TYPHIMURIUM, Strain/Indicator: TA1535, Metabolic Activation: RAT, LIVER, S-9, AROCLOR 1254 (10%), Method: PREINCUBATION) “active; positive”; (Test System: AMES SALMONELLA TYPHIMURIUM, Strain/Indicator: TA1535, Metabolic Activation: RAT, LIVER, S-9, AROCLOR 1254, Method: STANDARD PLATE) “inactive; negative”; (Test System: AMES SALMONELLA TYPHIMURIUM, Strain/Indicator: TA1537, Metabolic Activation: HAMSTER, LIVER, S-9, AROCLOR 1254 (10%), Method: PREINCUBATION) “active; positive”; (Test System: AMES SALMONELLA TYPHIMURIUM, Strain/Indicator: TA1537, Metabolic Activation: HAMSTER, LIVER, S-9, AROCLOR 1254, Method: STANDARD PLATE) “inactive; negative”; (Test System: AMES SALMONELLA TYPHIMURIUM, Strain/Indicator: TA1537, Metabolic Activation: NONE, Method: PREINCUBATION) “active; positive”. The mutagenic call reads like this: (Test System: AMES SALMONELLA TYPHIMURIUM, Strain/Indicator: TA1537, Metabolic Activation: NONE, Method: STANDARD PLATE) “inactive; negative”; (Test System: AMES SALMONELLA TYPHIMURIUM, Strain/Indicator: TA1537, Metabolic Activation: RAT, LIVER, S-9, AROCLOR 1254 (10%), Method: PREINCUBATION) “active; positive”; (Test System: AMES SALMONELLA TYPHIMURIUM, Strain/Indicator: TA1537, Metabolic Activation: RAT, LIVER, S-9, AROCLOR 1254, Method: STANDARD PLATE) “inactive; negative”; (Test System: AMES SALMONELLA TYPHIMURIUM, Strain/Indicator: TA1538, Metabolic Activation: HAMSTER, LIVER, S-9, AROCLOR 1254, Method: STANDARD PLATE) “inactive; negative”; (Test System: AMES SALMONELLA TYPHIMURIUM, Strain/Indicator: TA1538, Metabolic Activation: NONE, Method: STANDARD PLATE) “inactive; negative”; (Test System: AMES SALMONELLA TYPHIMURIUM, Strain/Indicator: TA1538, Metabolic Activation: RAT, LIVER, S-9, AROCLOR 1254, Method: STANDARD PLATE) “inactive; negative”. Also, the mutagenic call was “active; positive” (Test System: Ames Salmonella typhimurium, Strain/Indicator: TA100, Metabolic Activation: Rat, Liver, S9, Sodium phenobarbital and 5,6-benzoflavone (10%), Method: Preincubation); “active; positive” (Test System: Ames Salmonella typhimurium, Strain/Indicator: TA1535, Metabolic Activation: None, Method: Preincubation); “active; positive” (Test System: Ames Salmonella typhimurium, Strain/Indicator: TA1535, Metabolic Activation: Rat, Liver, S9, Sodium phenobarbital and 5,6-benzoflavone (10%), Method: Preincubation); “inactive; negative” (Test System: Ames Salmonella typhimurium, Strain/Indicator: TA1537, Metabolic Activation: None, Method: Preincubation); “inactive; negative” (Test System: Ames Salmonella typhimurium, Strain/Indicator: TA1537, Metabolic Activation: Rat, Liver, S9, Sodium phenobarbital and 5,6-benzoflavone (10%), Method: Preincubation); “inactive; negative” (Test System: E. coli, Strain/Indicator: WP2uvrA/pKM101, Metabolic Activation: None, Method: Preincubation). The mutagenic call runs as follows: (Test System: E. coli, Strain/Indicator: WP2uvrA/pKM101, Metabolic Activation: Rat, Liver, S9, Sodium phenobarbital and 5,6-benzoflavone (10%), Method: Preincubation) “inactive; negative”; (Test System: MOUSE LYMPHOMA, Strain/Indicator: L5178Y (TK+/TK-), Metabolic Activation: NONE, Method: SUSPENSION/PLATE) “inactive; negative. reevaluation of results: negative”; (Test System: MOUSE LYMPHOMA, Strain/Indicator: L5178Y (TK+/TK-), Metabolic Activation: RAT, LIVER, S-9, AROCLOR 1254, Method: SUSPENSION/PLATE) “inactive; negative. reevaluation of results: negative”.

As for `CC(C)(C)OC(=O)C=Cc1ccc([N+](=O)[O-])o1`, the mutagenic call (Test System: AMES SALMONELLA TYPHIMURIUM, Strain/Indicator: TA98, Metabolic Activation: NONE, Method: PREINCUBATION) was “active; positive”.

In the case of `CN(C)CCN(C)N=O`, the mutagenic call reads like this: (Test System: AMES SALMONELLA TYPHIMURIUM, Strain/Indicator: TA1535, Metabolic Activation: HAMSTER, LIVER, S-9, Method: STANDARD PLATE) “active; positive”; (Test System: AMES SALMONELLA TYPHIMURIUM, Strain/Indicator: TA1535, Metabolic Activation: RAT, LIVER, S-9, Method: STANDARD PLATE) “inactive; negative”.
